Some results are limits rather than exact numbers.

As a reminder, the IC50 is the concentration needed to halve the response being measured.

T1 sequence (Q14831 35-922 isoform Q14831-2): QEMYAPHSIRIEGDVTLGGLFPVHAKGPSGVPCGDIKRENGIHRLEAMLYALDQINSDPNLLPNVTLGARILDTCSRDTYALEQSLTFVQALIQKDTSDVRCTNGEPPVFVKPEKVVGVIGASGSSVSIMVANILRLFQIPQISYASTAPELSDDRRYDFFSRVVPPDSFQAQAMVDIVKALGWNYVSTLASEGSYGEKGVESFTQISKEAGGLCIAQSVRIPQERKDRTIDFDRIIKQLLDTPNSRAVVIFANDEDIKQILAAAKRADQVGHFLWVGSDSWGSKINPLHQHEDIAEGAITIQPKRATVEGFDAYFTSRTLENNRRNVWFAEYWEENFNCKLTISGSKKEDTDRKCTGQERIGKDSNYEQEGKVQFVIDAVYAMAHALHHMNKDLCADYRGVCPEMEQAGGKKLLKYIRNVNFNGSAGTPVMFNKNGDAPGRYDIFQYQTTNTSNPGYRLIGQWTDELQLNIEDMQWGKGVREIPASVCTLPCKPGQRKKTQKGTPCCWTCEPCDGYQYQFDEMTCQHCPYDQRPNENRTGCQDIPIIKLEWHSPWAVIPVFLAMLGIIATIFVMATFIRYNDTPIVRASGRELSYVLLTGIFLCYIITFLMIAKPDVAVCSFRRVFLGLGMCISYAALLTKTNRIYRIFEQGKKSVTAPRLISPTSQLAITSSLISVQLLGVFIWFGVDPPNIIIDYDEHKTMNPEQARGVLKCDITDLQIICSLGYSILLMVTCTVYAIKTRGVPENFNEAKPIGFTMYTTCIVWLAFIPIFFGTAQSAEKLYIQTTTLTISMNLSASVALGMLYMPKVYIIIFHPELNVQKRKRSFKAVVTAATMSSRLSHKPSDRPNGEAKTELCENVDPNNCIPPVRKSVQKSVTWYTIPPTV

This experiment concerns the target T1, human metabotropic glutamate 7 receptor (hmGlu7) (Homo sapiens, UniProt Q14831).
T1 construct: expressed in transfected cells
The experiment can be described thus: mGlu7 assay on HEK-expressing human mGlu7: fluorescent cell based Ca2+ mobilization assay (FLIPR), inhibition of EC80 L-AP4 response. The following applies: HEK-293 cells expressing hmGlu7; EC80 L-AP4 stimulation; mean of at least three independent experiments in duplicate; read-out: Ca2+ Flux (mean IC50). An excerpt: mGlu7 Assay on HEK-Expressing Human mGlu7
The cDNA encoding the human metabotropic glutamate 7 receptor (hmGlu7), (accession number NM_181874.2, NCBI Nucleotide database browser), was subcloned into an expression vector containing also the hygromycin resistance gene. In parallel, the cDNA encoding a G protein allowing redirection of the activation signal to intracellular calcium flux was subcloned into a different expression vector containing also the Puromycin resistance gene. Transfection of both these vectors into HEK293 cells with PolyFect reagent (Qiagen) according to supplier's protocol, and hygromycin and puromycin treatment allowed selection of antibiotic resistant cells which had integrated stably one or more copies of the plasmids. Positive cellular clones expressing hmGlu7 were identified in a functional assay measuring changes in calcium fluxes in response to glutamate and L-AP4 or known mGlu7 orthosteric antagonists.
HEK-293 cells expressing hmGlu7 were maintained in media containing DMEM, Fetal Bovine Serum (10%), Glutamax™ (2 mM), penicillin (100 units/mL), streptomycin (100 μg/mL), geneticin (100 μg/mL) and hygromycin-B (40 μg/mL) and puromycin (1 μg/mL) at 37° C. with 5% CO2 in a humidified atmosphere.
Fluorescent Cell Based-Ca^2+ Mobilization Assay Human mGlu7 HEK-293 cells were plated out 24 hours prior to a fluorescent cell-based calcium mobilization assay using FLIPR^384 assay (Molecular Device, Sunnyvale, CA, USA) in black-walled, clear-bottomed, poly-L-ornithine-coated 384-well plates at a density of 25,000 cells/well in a glutamine/glutamate free DMEM medium containing fetal bovine serum (10%), penicillin (100 units/mL), streptomycin (100 μg/mL) and doxycyline (1 μg/ml) at 37° C. with 5% CO2 in a humidified atmosphere.
On the day of the assay, the medium was aspirated and the cells were loaded with a 3 μM solution of Fluo4-AM (LuBioScience, Lucerne, Switzerland) in 0.03% pluronic acid. After 1 hour at 37° C./5% CO2, the non incorporated dye was removed by washing cell plate with the assay buffer. All assays were performed in a pH 7.4 buffered-solution containing 20 mM HEPES, 143 mM NaCl, 6 mM KCl, 1 mM MgSO4, 1 mM CaCl2, 0.125 mM sulfinpyrazone and 0.1% glucose.
After 10 s of basal fluorescence recording, various concentrations of the compounds of the invention were added to the cells. Changes in fluorescence levels were first monitored for 180 s in order to detect any agonist activity of the compounds. Then the cells were stimulated by an EC80 L-AP4 concentration for an additional 110 s in order to measure inhibiting activities of the compounds of the invention. EC80 L-AP4 concentration is the concentration giving 80% of the maximal glutamate response.
The concentration-response curves of L-AP4 or representative compounds of the present invention were generated using the Prism GraphPad software (Graph Pad Inc, San Diego, USA). The curves were fitted to a four-parameter logistic equation: […]
allowing determination of IC50 values.
The Table 3 below represents the mean IC50 obtained from at least three independent experiments of selected molecules performed in duplicate.
For orientation: Calcium assays in cells follow changes in intracellular calcium, usually with a dye or a luminescent sensor.
Regarding `Cc1c2cnn(-c3ccccn3)c(=O)c2c(C)n1-c1cccc(N(C)C)c1` [1-110], the IC50 fell in the range of 100 to 1000 nM. Then `Cc1c2cnn(-c3ccccn3)c(=O)c2c(C)n1-c1cccc(N2CCCC2=O)c1` [1-111], with 1000 to 10000 nM; and `COc1ccc(-n2ncc3c(C)n(-c4cccc(N5CCOCC5)c4)c(C)c3c2=O)cc1` [1-67], with 100 to 1000 nM; and `COc1cccc(-n2c(C)c3cnn(-c4cccc(OC)c4)c(=O)c3c2C)c1` [1-130], with below 100 nM. With `Cc1c2cnn(-c3ccc(C(=O)CNC(=O)OC(C)(C)C)cc3)c(=O)c2c(C)n1-c1cccc(N2CCC2)c1` [1-184], the IC50 is 100 to 1000 nM. As to `Cc1c2cnn(-c3ncccn3)c(=O)c2c(C)n1-c1cccc2c1ccn2C1CC1` [1-198], the IC50 was below 100 nM. Regarding `Cc1c2cnn(-c3ccccc3)c(=O)c2c(C)n1-c1cccc(N2CCCC2=O)c1` [1-49], the 50% inhibitory concentration (IC50) was in the range of 100 to 1000 nM. As for `Cc1c2cnn(-c3ccccn3)c(=O)c2c(C)n1-c1cccc(N2CCC(C)(C)C2)c1` [1-179], the IC50 lay within 100 to 1000 nM. `COc1cccc(-n2c(C)c3cnn(-c4ccc(C(C)(C)O)cn4)c(=O)c3c2C)c1` [1-216]: the IC50 is below 100 nM. To `Cc1c2cnn(-c3ccc(Cl)cn3)c(=O)c2c(C)n1-c1cccc(N2CCC2)c1` [1-183] belongs below 100 nM; to `COc1cc(-n2c(C)c3cnn(-c4ccccn4)c(=O)c3c2C)ccn1` [1-62], 1000 to 10000 nM; to `Cc1c2cnn(-c3ccccc3Cl)c(=O)c2c(C)n1-c1ccccc1` [1-20], 100 to 1000 nM. In the case of `COc1ccc(-n2ncc3c(C)n(-c4ccccc4)c(C)c3c2=O)cc1` [1-13, 2-(4-Methoxyphenyl)-5,7-dimethyl-6-phenyl-2,6-dihydro-1H-pyrrolo[3,4-d]pyridazin-1-one], the IC50 fell in the range of 100 to 1000 nM. Take `Cc1c2cnn(-c3ccccc3)c(=O)c2c(C)n1-c1ccc(N(C)C)cc1` [1-23]: the half-inhibitory concentration (IC50) lay within 100 to 1000 nM. To `Cc1c2cnn(-c3ncccc3F)c(=O)c2c(C)n1-c1cccc(N2CCC2)c1` [1-225] belongs below 100 nM; to `Cc1c2cnn(-c3ccc(C#N)cn3)c(=O)c2c(C)n1-c1cccc(N2CCC2)c1` [1-160], below 100 nM.

With `COc1cccc(-n2c(C)c3cnn(-c4ccc(CCCO)cc4)c(=O)c3c2C)c1` [1-118], the IC50 was below 100 nM. To `Cc1c2cnn(-c3ccc(N4CCOCC4)cc3)c(=O)c2c(C)n1-c1cccc(N2CCC2)c1` [1-219] belongs 100 to 1000 nM. To `Cc1c(OC2CC2)cccc1-n1c(C)c2cnn(-c3ncccc3F)c(=O)c2c1C` [1-211] belongs below 100 nM. Consider `COc1cccc(-n2c(C)c3cnn(-c4cncc(OC)c4)c(=O)c3c2C)c1` [1-94], for which the IC50 is 100 to 1000 nM. For the compound `Cc1c2cnn(-c3ccc(C#N)cc3)c(=O)c2c(C)n1-c1ccccc1` [1-17], the half-inhibitory concentration (IC50) lay within 100 to 1000 nM. For the compound `COc1ccc(-n2c(C)c3cnn(-c4ccccn4)c(=O)c3c2C)cc1` [1-47], the half-inhibitory concentration (IC50) was in the range of 100 to 1000 nM. To `Cc1c2cnn(-c3ccncc3)c(=O)c2c(C)n1-c1cccc(N2CCC2)c1` [1-156] belongs below 100 nM; to `COc1cccc(-n2c(C)c3cnn(-c4ncc(C5CC5)cn4)c(=O)c3c2C)c1C` [1-207], 100 to 1000 nM; to `Cc1c2cnn(-c3nccs3)c(=O)c2c(C)n1-c1cccc(N2CCC2)c1` [1-227], 1000 to 10000 nM. In the case of `CCc1c2c(=O)n(-c3ccccc3)ncc2c(C)n1-c1cccc(OC)c1` [1-89], the IC50 lay within 100 to 1000 nM. Then `Cc1c2cnn(-c3ccccc3)c(=O)c2c(C)n1-c1ccccn1` [1-25], with 1000 to 10000 nM; and `COc1cccc(-n2c(C)c3cnn(-c4ccccc4OC)c(=O)c3c2C)c1` [1-148], with 100 to 1000 nM; and `Cc1c2cnn(-c3ccccn3)c(=O)c2c(C)n1-c1ccc(F)c(N2CCC2)c1` [1-192], with 100 to 1000 nM.

In the case of `Cc1c2cnn(-c3ccc(CO)cc3)c(=O)c2c(C)n1-c1ccccc1` [1-92], the IC50 lay within 100 to 1000 nM. Then `Cc1ccc(-n2c(C)c3cnn(-c4cccc(C)c4)c(=O)c3c2C)cc1` [1-99], with 100 to 1000 nM. As for `Cc1c2cnn(-c3cccc(N4CCOCC4)c3)c(=O)c2c(C)n1-c1cccc(N2CCC2)c1` [1-167], the half-maximal inhibitory concentration (IC50) fell in the range of 100 to 1000 nM. Turning to `COc1cccc(-n2c(C)c3cnn(-c4ccc(S(C)(=O)=O)cc4)c(=O)c3c2C)c1` [1-119], the IC50 was below 100 nM. Then `Cc1c2cnn(-c3ccc(F)cc3)c(=O)c2c(C)n1-c1ccccc1` [1-11], with below 100 nM. Then `Cc1c2cnn(-c3ccc(S(N)(=O)=O)cc3)c(=O)c2c(C)n1-c1ccccc1` [1-28], with below 100 nM; and `COc1ccccc1-n1ncc2c(C)n(-c3ccccc3)c(C)c2c1=O` [1-5], with 1000 to 10000 nM; and `Cc1c(OC2CC2)cccc1-n1c(C)c2cnn(-c3ncccn3)c(=O)c2c1C` [1-200], with below 100 nM. Consider `Cc1ccc(-n2c(C)c3cnn(-c4cccnc4)c(=O)c3c2C)cc1` [1-39], for which the IC50 fell in the range of 100 to 1000 nM.

With `COc1cc(-n2c(C)c3cnn(-c4ccccn4)c(=O)c3c2C)ccc1C` [1-79], the IC50 is 100 to 1000 nM.

In the case of `Cc1c2cnn(-c3ccc(C(C)(C)O)cc3)c(=O)c2c(C)n1-c1cccc(N2CCC2)c1` [1-170, 6-(3-(Azetidin-1-yl)phenyl)-2-(4-(2-hydroxypropan-2-yl)phenyl)-5,7-dimethyl-2,6-dihydro-1H-pyrrolo[3,4-d]pyridazin-1-one], the IC50 is below 100 nM. Regarding `Cc1c2cnn(-c3cccc(C#N)c3)c(=O)c2c(C)n1-c1ccccc1` [1-16], the half-maximal inhibitory concentration (IC50) is 100 to 1000 nM. Consider `COc1cc(-n2c(C)c3cnn(-c4ccccn4)c(=O)c3c2C)ccc1Cl` [1-72], for which the concentration for half-maximal inhibition (IC50) was in the range of 1000 to 10000 nM. In the case of `Cc1cccc(-n2ncc3c(C)n(-c4ccccc4)c(C)c3c2=O)c1` [1-14], the 50% inhibitory concentration (IC50) is below 100 nM.

Consider `Cc1c2cnn(-c3ccccc3)c(=O)c2c(C)n1-c1cccc(Br)c1` [1-34, 6-(3-bromophenyl)-5,7-dimethyl-2-phenyl-2,6-dihydro-1H-pyrrolo[3,4-d]pyridazin-1-one], for which the half-maximal inhibitory concentration (IC50) is 1000 to 10000 nM. Consider `CC(=O)c1ccc(-n2ncc3c(C)n(-c4ccccc4)c(C)c3c2=O)cc1` [1-27], for which the IC50 was in the range of 100 to 1000 nM. Turning to `Cc1c2cnn(-c3ccccc3)c(=O)c2c(C)n1-c1cccc(N(C)C)c1` [1-35], the IC50 was below 100 nM. Take `COc1cccc(-n2c(C)c3cnn(-c4cccc(C#N)c4)c(=O)c3c2C)c1` [1-124]: the IC50 was in the range of 100 to 1000 nM. For `COc1cccc(-n2c(C)c3cnn(-c4ccccn4)c(=O)c3c2C)c1F` [1-233], the half-maximal inhibitory concentration (IC50) lay within 100 to 1000 nM. To `COc1cccc(-n2c(C)c3cnn(-c4ccc5ccccc5n4)c(=O)c3c2C)c1` [1-61] belongs 100 to 1000 nM; to `Cc1c2cnn(-c3ncccn3)c(=O)c2c(C)n1-c1cccc(OC2CC2)c1F` [1-236], below 100 nM; to `COc1cccc(-n2c(C)c3cnn(-c4ccccc4Cl)c(=O)c3c2C)c1` [1-150], 100 to 1000 nM. On to `COCCOc1ccc(-n2ncc3c(C)n(-c4cccc(N5CCC5)c4)c(C)c3c2=O)cc1` [1-162], for which the IC50 was below 100 nM. `Cc1c2cnn(-c3ccccn3)c(=O)c2c(C)n1-c1cccc2c1CCN2C` [1-210]: the half-maximal inhibitory concentration (IC50) was in the range of 100 to 1000 nM.

For `COc1cccc(-n2c(C)c3cnn(-c4ccc(OC)c(OC)c4)c(=O)c3c2C)c1` [1-117], the IC50 fell in the range of 100 to 1000 nM.

These data come from patent US20240262833A1, “FUSED HETEROCYCLIC DERIVATIVES AS NEGATIVE ALLOSTERIC MODULATORS OF MGLU7 RECEPTOR” (Addex Pharma S.A., priority 2021, published 2024).
